Entries after “also recorded” stand apart in the source; their conditions may differ. Where a SMILES comes first, the peptide text is derived from it. Bridges are numbered along the chain shown (N, C = ends). [ ]: non-standard residue; d: D form. dPen = CC(C)(S)[C@@H](N)C(=O)O; βAla = NCCC(=O)O
Columns and labels:
[1] = target: T1, αIIbβ3 integrin (αIIbβ3-K562 cells) (Homo sapiens, UniProt P05106+P08514); details: earlier study; cited from earlier work
[2] = target: T2, αvβ5 integrin (αvβ5-K562 cells) (Homo sapiens, UniProt P06756+P18084); details: earlier study; cited from earlier work
[3] = target: T3, αvβ3 integrin (αvβ3-K562 cells) (Homo sapiens, UniProt P05106+P06756); details: earlier study; cited from earlier work
[4] = target: T4, α5β1 integrin (parent K562 cells) (Homo sapiens, UniProt P05556+P08648); details: earlier study; cited from earlier work
[5] = test system: glioblastoma U-87MG or melanoma A375M xenograft models; details: in vivo and ex vivo optical imaging, U-87MG or A375M xenograft models; cited from earlier work
[6] = target: αvβ3 integrin (K562/αvβ3+ cells) (Homo sapiens, UniProt P05106+P06756); format: binding; details: for decrease (loss) of binding affinity / potency relative to LXW7: versus parent LXW7
[7] = target: T3, αvβ3 integrin (αvβ3-K562 cells); format: binding; details: 1μM biotinylated LXW64, then streptavidin-PE, flow cytometry
[8] = target: T2, αvβ5 integrin (αvβ5-K562 cells); format: binding; details: 1μM biotinylated LXW64, then streptavidin-PE, flow cytometry
[9] = target: T1, αIIbβ3 integrin (αIIbβ3-K562 cells); format: binding; details: 1μM biotinylated LXW64, then streptavidin-PE, flow cytometry
[10] = target: T4, α5β1 integrin (parent K562 cells); format: binding; details: 1μM biotinylated LXW64, then streptavidin-PE, flow cytometry
[11] = test system: U-87MG glioblastoma cells; assay: Binding to U-87MG glioblastoma cells in vitro; format: cell-based

For `CC(C)[C@H]1NC(=O)[C@@H](CC(=O)O)NC(=O)[C@H](CC(=O)O)NC(=O)CNC(=O)[C@H](CCCNC(=N)N)NC(=O)CNC(=O)[C@H](N)CSSC[C@H](C(N)=O)NC1=O` [peptide 1, cGRGDdvc-NH2] (H-[dC]GRGD[dD][dV][dC]-NH2; disulfide 1-8 (inferred); N-terminus assumed), the “binding to αIIbβ3 integrin” value [1] is listed as “weakly”, the “binding to αvβ5 integrin” value [2] is listed as “weakly” and the “binding to αvβ3 integrin” value [3] is listed as “strongly”. For the same molecule, the “binding to α5β1 integrin” value [4] was “no binding”, the liver uptake [5] was “low liver uptake” and the tumor uptake [5] was “excellent tumor uptake”.

With `CC(C)[C@H]1NC(=O)[C@@H](CC(=O)O)NC(=O)[C@H](CC(=O)O)NC(=O)CNC(=O)[C@H](CCCNC(=N)N)NC(=O)CNC(=O)[C@@H](N)CSSC[C@H](C(N)=O)NC1=O` [peptide 2, CGRGDdvc-NH2] (H-CGRGD[dD][dV][dC]-NH2; disulfide 1-8 (inferred); N-terminus assumed) the “decrease (loss) of binding affinity / potency relative to LXW7” value [6] was 10 fold.

In the case of `CC(C)[C@H]1NC(=O)[C@@H](CC(=O)O)NC(=O)[C@H](CC(=O)O)NC(=O)CNC(=O)[C@H](CCCNC(=N)N)NC(=O)CNC(=O)[C@H](N)CSSC[C@@H](C(N)=O)NC1=O` [peptide 3, cGRGDdvC-NH2] (H-[dC]GRGD[dD][dV]C-NH2; disulfide 1-8 (inferred); N-terminus assumed), the “decrease (loss) of binding affinity / potency relative to LXW7” value [6] is reported as 16 fold.

With `CC(C)[C@H]1NC(=O)[C@@H](CC(=O)O)NC(=O)[C@H](CC(=O)O)NC(=O)CNC(=O)[C@H](CCCNC(=N)N)NC(=O)CNC(=O)[C@@H](N)CSSC[C@@H](C(N)=O)NC1=O` [peptide 4, CGRGDdvC-NH2] (H-CGRGD[dD][dV]C-NH2; disulfide 1-8 (inferred); N-terminus assumed) the “binding affinity compared with LXW7 (in words)” value [6] was “complete loss of binding affinity”.

With `CC(C)[C@H]1NC(=O)[C@@H](CC(=O)O)NC(=O)[C@H](CC(=O)O)NC(=O)CNC(=O)[C@H](CCCNC(=N)N)NC(=O)CNC(=O)[C@H](N)C(C)(C)SSC[C@H](C(N)=O)NC1=O` [peptide 5, DPen-GRGDdvc-NH2] (H-[dPen]GRGD[dD][dV][dC]-NH2; disulfide 1-8 (inferred); N-terminus assumed) the “decrease (loss) of binding affinity / potency relative to LXW7” value [6] was 4 to 10 fold.

With `CC(C)[C@H]1NC(=O)[C@@H](CC(=O)O)NC(=O)[C@H](CC(=O)O)NC(=O)CNC(=O)[C@H](CCCNC(=N)N)NC(=O)CNC(=O)[C@H](N)CSSC(C)(C)[C@H](C(N)=O)NC1=O` [peptide 6, cGRGDdv-DPen-NH2] (H-[dC]GRGD[dD][dV][dPen]-NH2; disulfide 1-8 (inferred); N-terminus assumed) the “decrease (loss) of binding affinity / potency relative to LXW7” value [6] was 4 to 10 fold.

In the case of `CC(C)[C@H]1NC(=O)[C@@H](CC(=O)O)NC(=O)[C@H](CC(=O)O)NC(=O)CNC(=O)[C@H](CCCNC(=N)N)NC(=O)CNC(=O)[C@H](N)C(C)(C)SSC(C)(C)[C@H](C(N)=O)NC1=O` [peptide 7, DPen-GRGDdv-DPen-NH2] (H-[dPen]GRGD[dD][dV][dPen]-NH2; disulfide 1-8 (inferred); N-terminus assumed), the “decrease (loss) of binding affinity / potency relative to LXW7” value [6] is reported as 4 to 10 fold.

For `CC(C)[C@H]1NC(=O)[C@@H](CC(=O)O)NC(=O)[C@H](CC(=O)O)NC(=O)CNC(=O)[C@H](CCCNC(=N)N)NC(=O)[C@@H](C)NC(=O)[C@H](N)CSSC[C@H](C(N)=O)NC1=O` [peptide 8, caRGDdvc-NH2] (H-[dC][dA]RGD[dD][dV][dC]-NH2; disulfide 1-8 (inferred); N-terminus assumed), the “decrease (loss) of binding affinity / potency relative to LXW7” value [6] was 7.8 fold.

With `CC(C)[C@H]1NC(=O)[C@@H](CC(=O)O)NC(=O)[C@H](CC(=O)O)NC(=O)CNC(=O)[C@H](CCCNC(=N)N)NC(=O)CCNC(=O)[C@H](N)CSSC[C@H](C(N)=O)NC1=O` [peptide 9, c-βala-RGDdvc-NH2] (H-[dC][βAla]RGD[dD][dV][dC]-NH2; disulfide 1-8 (inferred); N-terminus assumed) the “decrease (loss) of binding affinity / potency relative to LXW7” value [6] was 11 fold.

With `N=C(N)NCCC[C@@H]1NC(=O)CNC(=O)[C@H](N)CSSC[C@H](C(N)=O)NC(=O)[C@@H](Cc2cccc3ccccc23)NC(=O)[C@@H](CC(=O)O)NC(=O)[C@H](CC(=O)O)NC(=O)CNC1=O` [peptide 40, cGRGDd-DNal1-c-NH2] the “binding to αvβ3-K562 cells” value [7] was “strongly; also recorded: significant positive binding”, the “binding to αvβ5-K562 cells” value [8] was “weakly” and the “binding to αIIbβ3-K562 cells” value [9] was “weakly”. For the same molecule, the “higher binding affinity than LXW7” value ([6]; versus LXW7) was 6.6 fold, the “binding to parent K562 cells (α5β1)” value [10] was “no binding” and the “binding to U-87MG glioblastoma cells” value [11] was “binding strongly”.

In the case of R3-cGRGDdvc-NH2 [compound 20], the “binding affinity compared with LXW7 (in words)” value [6] is reported as “modest loss of potency”.

In the case of R4-cGRGDdvc-NH2 [compound 21], the “binding affinity compared with LXW7 (in words)” value [6] is reported as “modest loss of potency”.

Source: publication PMC4747864 (Molecular cancer therapeutics, 2015)
